Measured values reported in US20210300926A1, “NEW BETA-LACTAMASE INHIBITORS TARGETING GRAM NEGATIVE BACTERIA” (priority 2017, published 2021).

Legend:
Assay type in all cases: biochemical
KPC-2 = molecular target: T1, KPC-2 (Klebsiella pneumoniae, UniProt Q9F663); test: Kinetic parameters of β-lactamase carbamoylation/de-carbamoylation (nitrocefin), KPC-2; details: for Carbamoylation efficacy of β-lactamases by diazabicyclooctanes / De-carbamoylation rate constant k−2 for β-lactamase-diazabicyclooctane adducts: KPC-2, 20° C., nitrocefin 100 μM, MES pH 6.4; for activity against KPC-2 (in words): summary of Tables 1 and 2
T1 construct: fragments of the β-lactamase genes encoding soluble enzymes, i.e. devoid of the signal peptides; 6xHis tag followed by TEV cleavage site ([…]) (N); made in house; host or cells: E. coli BL21 (DE3)
Description: (§1) Plasmid and strain construction. For antibiotic susceptibility testing, the R-lactamase genes were cloned into the vector pTRC-99k, which is a derivative of pTRC99a (Pharmacia) obtained by replacing the β-lactamase resistance gene by a kanamycin resistance gene (Km, lacl, pTRC promoter, oriVcolEl; D. Mengin-Lecreulx, unpublished). Recombinant plasmids were introduced by electrotransformation into Escherichia coli Top10. For β-lactamase production, fragments of the β-lactamase genes encoding soluble enzymes, i.e. devoid of the signal peptides, were cloned into the vector pET-TEV generating translational fusions with a vector-encoded N-terminal 6×His Tag followed by a TEV cleavage site ([…]) (1).
(§2) Production and purification of β-lactamases. E. coli BL21 (DE3) harboring recombinant plasmids were grown in brain heart infusion (BHI) broth supplemented with kanamycin (50 μg/ml) at 37° C. under vigorous shaking until the optical density at 600 nm (OD600) reached 0.8. Isopropyl β-D-1-thiogalactopyranoside IPTG (0.5 mM) was added and incubation was continued at 16° C. for 18 h. Bacteria were harvested by centrifugation, re-suspended in 25 mM Tris-HCl (pH 7.5) containing 300 mM NaCl (buffer A) and lysed by sonication. The enzymes were purified from clarified lysates by affinity chromatography (NiNTA agarose, Sigma-Aldrich) and size exclusion chromatography in buffer A (Superdex 200 HL26/60, Amersham Pharmacia Biotech). Protein concentration was determined by the Biorad protein assay using bovine serum albumin as a standard.
(§3) Determination of kinetic parameters. […] Briefly, the initial velocity (vi) was determined by spectrophotometry for various concentrations of β-lactams [S] and a fixed concentration of β-lactamase [E]. The values of vi were plotted as a function of [S]. The kinetic constants Km and kcat were determined by fitting the equation […] to the resulting curve. The molecular extinction coefficient was 14,600 M^−1 cm^−1 at 486 nm for nitrocefin. […] Kinetics constants were deduced from a minimum of 6 progress curves obtained in a minimum of two independent experiments.

AmpCEclo = molecular target: T2, AmpCEclo (Enterobacter cloacae, UniProt P05364); details: for Carbamoylation efficacy of β-lactamases by diazabicyclooctanes / De-carbamoylation rate constant k−2 for β-lactamase-diazabicyclooctane adducts: AmpCEclo, 20° C., nitrocefin 100 μM, MES pH 6.4
T2 construct: fragments of the β-lactamase genes encoding soluble enzymes, i.e. devoid of the signal peptides; 6xHis tag followed by TEV cleavage site ([…]) (N); made in house; host or cells: E. coli BL21 (DE3)
Experimental: as §2, §3

CTX-M-15 = molecular target: T3, CTX-M-15 (Escherichia coli, UniProt Q9EXV5); test: Kinetic parameters of β-lactamase carbamoylation/de-carbamoylation (nitrocefin), CTX-M-15; details: for Carbamoylation efficacy of β-lactamases by diazabicyclooctanes / De-carbamoylation rate constant k−2 for β-lactamase-diazabicyclooctane adducts: CTX-M-15, 20° C., nitrocefin 100 μM, MES pH 6.4; for activity against CTX-M-15 (in words): summary of Tables 1 and 2
T3 construct: fragments of the β-lactamase genes encoding soluble enzymes, i.e. devoid of the signal peptides; made in house; host or cells: E. coli BL21 (DE3)
Description: as §1, §2, §3

TEM-1 = molecular target: T4, TEM-1 (Escherichia coli, UniProt P62593); test: Kinetic parameters of β-lactamase carbamoylation/de-carbamoylation (nitrocefin), TEM-1; details: 20° C., nitrocefin 100 μM, MES pH 6.4
T4 construct: fragments of the β-lactamase genes encoding soluble enzymes, i.e. devoid of the signal peptides; made in house; host or cells: E. coli BL21 (DE3)
Description: as §1, §2, §3

OXA-48 = molecular target: T5, OXA-48 (Klebsiella pneumoniae, UniProt Q6XEC0); test: Kinetic parameters of β-lactamase carbamoylation/de-carbamoylation (nitrocefin), OXA-48; details: for Carbamoylation efficacy of β-lactamases by diazabicyclooctanes / De-carbamoylation rate constant k−2 for β-lactamase-diazabicyclooctane adducts: OXA-48, 20° C., nitrocefin 100 μM, MES pH 6.4, NA = no inhibition at 100 μM
T5 construct: fragments of the β-lactamase genes encoding soluble enzymes, i.e. devoid of the signal peptides; 6xHis tag followed by TEV cleavage site ([…]) (N); made in house; host or cells: E. coli BL21 (DE3)
Description: as §1, §2, §3

T3 sequence (Q9EXV5 entry or part of it): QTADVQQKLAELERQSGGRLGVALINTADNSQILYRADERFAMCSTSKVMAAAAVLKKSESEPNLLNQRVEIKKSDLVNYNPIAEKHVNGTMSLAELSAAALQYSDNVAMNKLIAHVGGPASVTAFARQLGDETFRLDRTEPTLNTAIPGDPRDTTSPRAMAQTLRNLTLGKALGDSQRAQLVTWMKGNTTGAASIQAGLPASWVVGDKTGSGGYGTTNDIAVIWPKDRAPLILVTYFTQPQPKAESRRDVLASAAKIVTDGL
T1 sequence (Q9F663 25-293 limits assumed): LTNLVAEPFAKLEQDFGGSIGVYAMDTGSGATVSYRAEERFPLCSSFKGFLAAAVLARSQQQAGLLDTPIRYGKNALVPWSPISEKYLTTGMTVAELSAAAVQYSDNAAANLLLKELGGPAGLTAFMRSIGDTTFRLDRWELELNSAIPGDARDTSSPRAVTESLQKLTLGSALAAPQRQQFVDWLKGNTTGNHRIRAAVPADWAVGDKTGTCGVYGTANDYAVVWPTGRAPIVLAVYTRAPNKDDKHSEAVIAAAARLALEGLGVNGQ
T4 sequence (P62593 24-286 limits assumed): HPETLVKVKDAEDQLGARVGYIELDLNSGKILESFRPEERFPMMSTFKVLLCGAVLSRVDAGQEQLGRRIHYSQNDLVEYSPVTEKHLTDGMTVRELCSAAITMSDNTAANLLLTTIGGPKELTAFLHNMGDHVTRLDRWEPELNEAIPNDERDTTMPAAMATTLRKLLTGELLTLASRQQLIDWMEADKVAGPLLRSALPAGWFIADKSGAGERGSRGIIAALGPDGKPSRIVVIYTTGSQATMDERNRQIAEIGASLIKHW
T5 sequence (Q6XEC0 23-265 limits assumed): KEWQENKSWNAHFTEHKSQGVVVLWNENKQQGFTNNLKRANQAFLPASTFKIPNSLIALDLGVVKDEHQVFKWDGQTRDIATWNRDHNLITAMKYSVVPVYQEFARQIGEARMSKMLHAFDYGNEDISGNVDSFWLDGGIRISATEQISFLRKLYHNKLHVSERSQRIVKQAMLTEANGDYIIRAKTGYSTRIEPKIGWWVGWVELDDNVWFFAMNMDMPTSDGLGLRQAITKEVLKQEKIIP
T2 sequence (P05364 21-381): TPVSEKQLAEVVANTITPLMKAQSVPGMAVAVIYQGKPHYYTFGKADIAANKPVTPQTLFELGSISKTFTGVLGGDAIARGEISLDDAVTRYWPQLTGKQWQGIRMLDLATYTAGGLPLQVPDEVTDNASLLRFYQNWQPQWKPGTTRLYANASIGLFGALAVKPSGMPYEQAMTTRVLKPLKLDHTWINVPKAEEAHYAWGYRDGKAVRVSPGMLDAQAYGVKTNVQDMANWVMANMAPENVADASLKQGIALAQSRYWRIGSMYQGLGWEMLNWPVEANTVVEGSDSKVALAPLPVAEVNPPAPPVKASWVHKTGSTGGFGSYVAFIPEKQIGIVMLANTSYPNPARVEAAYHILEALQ

| Structure (SMILES) | Carbamoylation efficacy of β-lactamases by diazabicyclooctanes (KPC-2) | De-carbamoylation rate constant k−2 for β-lactamase-diazabicyclooctane adducts (KPC-2) | activity against KPC-2 (in words) (KPC-2) | Carbamoylation efficacy of β-lactamases by diazabicyclooctanes (AmpCEclo) | De-carbamoylation rate constant k−2 for β-lactamase-diazabicyclooctane adducts (AmpCEclo) | Carbamoylation efficacy of β-lactamases by diazabicyclooctanes (CTX-M-15) | De-carbamoylation rate constant k−2 for β-lactamase-diazabicyclooctane adducts (CTX-M-15) | activity against CTX-M-15 (in words) (CTX-M-15) | Carbamoylation efficacy of β-lactamases by diazabicyclooctanes (TEM-1) | De-carbamoylation rate constant k−2 for β-lactamase-diazabicyclooctane adducts (TEM-1) | inhibition of β-lactamase AmpClo (in words) (AmpCEclo) | inhibition of β-lactamase OXA-48 (in words) (OXA-48) | Carbamoylation efficacy of β-lactamases by diazabicyclooctanes (OXA-48) | De-carbamoylation rate constant k−2 for β-lactamase-diazabicyclooctane adducts (OXA-48) |
| --- | --- | --- | --- | --- | --- | --- | --- | --- | --- | --- | --- | --- | --- | --- |
| O=C1N2C[C@@H](CC[C@H]2Cn2cc(-c3cccnc3)nn2)N1OS(=O)(=O)O [Compound 1a.i] | (5.5 ± 0.1) × 10^2 M^−1 s^−1 | (3.0 ± 0.1) × 10^−3 s−1 | displayed activity | (8.5 ± 0.7) × 10^1 M^−1 s^−1 | (2.1 ± 0.5) × 10^−3 s−1 | (1.7 ± 0.4) × 10^3 M^−1 s^−1 | (6.4 ± 0.8) × 10^−4 s−1 | displayed activity | (1.4 ± 0.1) × 10^3 M^−1 s^−1 | (2.1 ± 0.2) × 10^−3 s−1 | – | – | – | – |
| O=C1N2C[C@@H](CC[C@H]2Cn2cc(CN3CCOCC3)nn2)N1OS(=O)(=O)[O-].[Na+] [Compound 1a.i11] | (1.9 ± 0.2) × 10^2 M^−1 s^−1 | (3.0 ± 0.4) × 10^−3 s−1 | displayed activity | (3.1 ± 0.3) × 10^1 M^−1 s^−1 | (8.9 ± 2.1) × 10^−4 s−1 | (1.0 ± 0.0) × 10^2 M^−1 s^−1 | (4.6 ± 1.1) × 10^−4 s−1 | displayed activity | (1.2 ± 0.0) × 10^3 M^−1 s^−1 | (2.9 ± 0.3) × 10^−3 s−1 | – | – | – | – |
| NC(=O)[C@@H]1CC[C@@H]2CN1C(=O)N2OS(=O)(=O)O [Avibactam, reference compound] | (2.6 ± 0.1) × 10^4 M^−1 s^−1 | (4.0 ± 0.3) × 10^−3 s−1 | – | (1.8 ± 0.1) × 10^4 M^−1 s^−1 | (1.8 ± 0.2) × 10^−3 s−1 | (1.3 ± 0.1) × 10^5 M^−1 s^−1 | (1.1 ± 0.3) × 10^−3 s−1 | – | (8.8 ± 0.2) × 10^4 M^−1 s^−1 | (1.3 ± 0.1) × 10^−3 s−1 | poorly inhibited | poorly inhibited | (9.8 ± 0.6) × 10^2 M^−1 s^−1 | (2.7 ± 0.1 ) × 10^−3 s−1 |
| O=C1N2C[C@@H](CC[C@H]2Cn2cc(-c3ccccc3)nn2)N1OS(=O)(=O)[O-].[Na+] [Compound 1a.i16] | (9.3 ± 0.4) × 10^2 M^−1 s^−1 | (8.8 ± 1.2) × 10^−4 s−1 | displayed activity | (2.0 ± 0.0) × 10^2 M^−1 s^−1 | (2.3 ± 0.1) × 10^−3 s−1 | (6.9 ± 0.2) × 10^3 M^−1 s^−1 | (3.3 ± 0.5) × 10^−4 s−1 | displayed activity | (4.7 ± 0.1) × 10^3 M^−1 s^−1 | (4.2 ± 0.6) × 10^−4 s−1 | – | – | (1.1 ± 0.3) × 10^2 M^−1 s^−1 | (1.7 ± 0.1) × 10^−3 s−1 |
